In patent US7531537B2, “Benzofuran derivative” (Mitsubishi Tanabe Pharma Corporation, priority 2002, dated 2009):
pIC50: −log10 of the molar value.

Experiments:
[1] = distribution volume; conditions: in vivo
[2] = biological target: activated blood coagulation factor X (FXa) (Homo sapiens, UniProt P00742); test: FXa inhibitory effect; format: biochemical
Sequence of activated blood coagulation factor X (FXa) (P00742 235-488 limits assumed): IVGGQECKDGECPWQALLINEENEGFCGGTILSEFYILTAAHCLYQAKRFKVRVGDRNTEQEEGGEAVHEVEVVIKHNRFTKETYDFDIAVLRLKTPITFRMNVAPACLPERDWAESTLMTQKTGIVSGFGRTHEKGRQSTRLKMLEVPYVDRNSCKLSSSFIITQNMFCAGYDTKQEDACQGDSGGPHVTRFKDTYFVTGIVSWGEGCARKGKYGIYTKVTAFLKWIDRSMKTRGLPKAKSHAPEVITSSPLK
Sequence of activated blood coagulation factor X (FXa) (P00742 41-179 partner limits assumed): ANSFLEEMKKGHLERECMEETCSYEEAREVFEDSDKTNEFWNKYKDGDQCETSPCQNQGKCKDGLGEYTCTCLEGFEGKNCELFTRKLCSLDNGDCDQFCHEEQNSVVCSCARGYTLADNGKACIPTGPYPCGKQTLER

distribution volume [1]: 0.8 L/kg
pIC50 [2]: > 7.00
SMILES: CN(C)C(=O)c1ccc2oc(C(=O)Nc3ccc(Cl)cn3)c(NC(=O)[C@H]3CC[C@H](N(C)C=O)CC3)c2c1 [trans-5-dimethylaminocarbonyl-3-[4-(N-formyl-N-methylamino)-cyclohexylcarbonylamino]-N-(5-chloropyridin-2-yl)-benzofuran-2-carboxamide]
